# Assay results: US20060257411A1 (priority 2005, published 2006)
# Like-named read-outs stand apart in the source and are kept apart here.
# B1: type I interferon: recombinant murine IFN-β from R&D systems used to pretreat macrophages (protein, UniProt P01575 22-182, looked up)
# Interferon beta: INYKQLQLQERTNIRKCQELLEQLNGKINLTYRADFKIPMEMTEKMQKSYTAFAIQEMLQNVFLVFRNNFSSTGWNETIVVRLLDELHQQTVFLKTVLEEKQEERLTWEMSSTALHLKSYYWRVQRYLKLMKYNSYAWMVVRAEIFRNFLIIRRLTRNFQN
# Columns and labels:
# peritoneal macrophages = format: cell-based, mouse
# [1] = system: MyD88-independent pathway (TRIF-TRAM, IRF-3) in peritoneal macrophages; format: cell-based, mouse
# [2] = system: vesicular stomatitis virus (VSV); format: cell-based; conditions: Heedless or Tlr4 Lps-d/Lps-d macrophages treated with interferon before infection (4 h)
# [3] = macrophages from homozygous Heedless mice compared with wild-type, 4 h incubation
molecule,measurement,setting,value
MALP-2,TNF production in response to inducer,peritoneal macrophages,partial impairment
Pam2CSK4,TNF production in response to inducer,peritoneal macrophages; [3],partial impairment
Pam3CSK4,TNF production in response to inducer,peritoneal macrophages; [3],normal
lipid A,formation of the IRF-3 phosphodimer,[1],not detected
same,signaling via the MyD88-independent pathway (type I IFN production),[1],prevented
same,TNF production in response to lipid A,peritoneal macrophages,perfectly able to produce TNF
lipoteichoic acid,TNF production in response to inducer,peritoneal macrophages,partial impairment
poly IC,TNF production in response to inducer,peritoneal macrophages; [3],normal
B1,lytic effect of VSV on macrophages,[2],prevented
